Data: patent publication US20260250412A1, “COMBINATION OF ANTIBODY-DRUG CONJUGATE AND ANTI-PD-1 ANTIBODY, AND USE THEREOF” (GENEQUANTUM HEALTHCARE (SUZHOU) CO., LTD., priority 2023, published 2026)
Values joined by “and” are separate entries in the source; they are usually repeats but may differ in a detail not shown here. Equal entries are not always repeated.

Experiments:
[1] = tested on: Trop2-positive cells BxPC-3 and Trop2-negative cells HepG2; experiment: Bystander killing in BxPC-3/HepG2 co-culture assay (BxPC-3:HepG2=4:1); format: cell-based, human; conditions: 10 nM, 96 h
Method: (§1) After the treatment, the cells were moved to the incubator and incubated for 96 h. After the incubation, cells were digested, and washed once with 1×PBS, then transferred to a flow tube, and centrifuged at 2000 rpm for 3 min. The supernatant was then discarded, and the cell amount and cell viability were detected. […] The cells were washed with 1×PBS, the supernatant was discarded after centrifugation, 200 μL of 5 μg/mL human IgG Fe antibody was added, and the resulting cells were continued to incubate at 4° C. for 30 min after mixing. Finally, the cells were washed with 1×PBS, the supernatant was discarded after centrifugation, and the cells were resuspended in PBS, detected by flow cytometry and analyzed by FlowJo software.

[2] = tested on: Trop2-positive cells BxPC-3 and Trop2-negative HepG2 cells; experiment: Bystander killing in BxPC-3/HepG2 co-culture assay (BxPC-3:HepG2=2:1); format: cell-based, human
Method: as §1

[3] = tested on: human pharyngeal squamous cells carcinoma FaDu; experiment: Cell proliferation, CellTiter Glo, 96 h, FaDu; format: cell-based
Method: (§2) A positive control group was set: 100 μL Puromycin at a concentration of 10 μg/mL was added to each well. […] After the administration was completed, the cells were moved to the incubator and incubated for 96 h. The 96-well plate was removed from the 37° C. cell incubator and equilibrated to room temperature for 30 minutes. After the medium was discarded, 100 μL of DMEM and 50 μL of CellTiter Glo reagent were added to each well, and the cells were shaken in the dark at 200 rpm for 15 minutes, and the luminescent signal reflecting cell viability was detected by a microplate reader.

[4] = tested on: human pancreatic cancer cells BxPC-3; experiment: Cell proliferation, CellTiter Glo, 96 h, BxPC-3; format: cell-based; conditions: BxPC-3, 96 h
Method: as §2

[5] = tested on: Trop2 positive cancer cells FaDu; experiment: Cytotoxicity assay, CellTiter-Glo, 168 h, FaDu; format: cell-based, human
Method: (§3) In brief, 3000 to 5000 cells were plated in 96-well plates, and cells were able to attach overnight. Cells were treated with indicated drugs with various concentrations for 168 h. Cell viabilities were examined by CellTiter-Glo® Luminescent Cell Viability Assay, and percentage of cell viability was calculated.

[6] = tested on: Trop2 positive cancer cells NCI-N87; experiment: Cytotoxicity assay, CellTiter-Glo, 168 h, NCI-N87; format: cell-based, human
Method: as §3

[7] = tested on: NCI-N87 mouse xenograft tumor; experiment: In vivo efficacy, NCI-N87 mouse xenograft tumor; design: species or system BALB/c nude mice; conditions: 3 mg/kg; for Tumor volume (mm^3) Day 0: baseline at grouping
[8] = tested on: human breast cancer BR-05-0028 model; experiment: In vivo efficacy, human breast cancer BR-05-0028 mouse xenograft tumor; design: species or system BALB/c nude mice
Method: II. The tumor diameter was measured with a vernier caliper and the tumor volume was calculated according to the formula V=0.5a×b^2 (where a is the longest diameter of the tumor and b is the shortest diameter of the tumor). […] Animals in each group were administered by tail vein injection, and the control group was given an equal volume of vehicle. […] T/C and TGI values were calculated using tumor volume. The calculation formula is as follows: T/C %=TRTV/CRTV×100% (TRTV: RTV of the treatment group; CRTV: RTV of the vehicle control group). The relative tumor volume (RTV) was calculated based on the results of tumor measurement, and the calculation formula was RTV=Vt/V0, where V0 was the average tumor volume measured at the time of grouping (i.e., D0), Vt was the average tumor volume at one measurement, and TRTV and CRTV took the same day of data.
The human breast cancer BR-05-0028 model (IHC 3±) was derived from tumor samples resected in clinical surgery. The tumor samples were inoculated into nude mice at the P0 generation, and the tumor tissue used in this example was the P5 generation. Tumor tissue with a volume of about 30 mm^3 was subcutaneously inoculated into the right back dorsum of SPF female BALB/c nude mice aged 6-8 weeks.

[9] = tested on: MC38-hTROP2 colon carcinoma; experiment: In vivo efficacy, MC38-hTROP2 colon carcinoma syngeneic CDX model; design: species or system C57BL/6J mice; conditions: Table 22, monotherapy 3 mg/kg
Method: Objective: To evaluate the in vivo anti-tumor efficacy of the combination of ADC drug ADC2 with Anti-mPD-1 in mice bearing colon carcinoma Trop2-high CDX model.
I. MC38-hTROP2 cells (Biocytogen) in exponential growth stage were collected and counted for tumor inoculation. 0.5×10^6 cells in 0.1 mL of PBS were used to subcutaneously inject into the right flank of SPF female C57BL/6J mice aged 6-8 weeks.
II. 6 days after inoculation, the tumor diameter was measured with a caliper and the tumor volume was calculated according to the formula V=0.5 a×b^2 (wherein a is the long diameter of the tumor and b is the short diameter of the tumor). When the mean tumor volume was about 100-300 mm^3, the mice were randomized into vehicle group, ADC2 3 mg/kg group, DS1062a 3 mg/kg group, Anti-mPD-1 (Bio X cell, 825822J1) 1 mg/kg group, ADC2+Anti-mPD-1 combination group and DS1062a+Anti-mPD-1 combination group. Each group includes 6 mice. The day of first administration is defined as day 0. Mice in the vehicle group were given the solvent of ADC2 and the solvent of Anti-mPD-1 with the same frequency and administration route. The tumor volume of mice in each group was measured twice a week.

[10] = Table 6, same process as effect example 1.2
[11] = Table 15, single dose, 5 mg/kg, Day 21

## DS1062a
[1]; Table 4
  Amount of cells (10^4) BxPC-3: 10.88 10^4
  Amount of cells (10^4) HepG2: 33.72 10^4
  Cell proportion (%) BxPC-3: 24.4%
  Cell proportion (%) HepG2: 75.6%
[1]; Table 4, whole co-culture
  Number of viable cells (10^4): 44.6 10^4
[1]; effect example 1.1
  bystander killing effect (in words): had bystander killing effects
[2]; Table 5, 10 nM
  Amount of cells (10^4) BxPC-3: 12.25 10^4
  Amount of cells (10^4) HepG2: 144.75 10^4
  Cell proportion (%) BxPC-3: 7.8%
  Cell proportion (%) HepG2: 92.2%
[2]; Table 5, 10 nM, whole co-culture
  Number of viable cells (10^4): 157.0 10^4
[2]; [10]
  Amount of cells (10^4) BxPC-3: 12.25 10^4
  Amount of cells (10^4) HepG2: 144.75 10^4
  Cell proportion (%) BxPC-3: 7.8%
  Cell proportion (%) HepG2: 92.2%
[2]; Table 6, same process as effect example 1.2, whole co-culture
  Number of viable cells (10^4): 157.0 10^4
[2]; effect example 1.3
  bystander killing effect (in words): had bystander killing effects
[3]
  inhibition of proliferation (in words): could inhibit the proliferation of FaDu cells
[3]; Table 7
  IC50: 0.551 nM
[4]
  inhibition of proliferation (in words): could inhibit the proliferation of BxPC-3 cells
[4]; Table 8
  IC50: 0.584 nM
[5]
  IC50: 0.17 nM
[6]
  IC50: 2.1 nM
[7]; Table 14, single dose
  Tumor volume (mm^3) Day 32: 658 mm^3 and 658 ± 43 mm^3
  Tumor volume (mm^3) Day 0: 228 ± 20 mm^3
[7]; Table 14, single dose, Day 32
  T/C (%): 49.98%
  TGI (%): 60.23%
[7]; Table 17
  Tumor volume (mm^3) Day 28: 255 mm^3 and 255 ± 35 mm^3
  Tumor volume (mm^3) Day 0: 188 ± 11 mm^3
[7]; Table 17, Day 28
  T/C (%): 40.30%
  TGI (%): 84.96%
[7]; Table 20
  Tumor volume (mm^3) Day 42: 437 mm^3 and 437 ± 89 mm^3
  Tumor volume (mm^3) Day 0: 196 ± 14 mm^3
[7]; Table 20, Day 42
  T/C (%): 35.67%
  TGI (%): 76.58%
[7]; effect example 3.1.2, after 32 days
  tumor growth inhibition (in words): able to significantly inhibit tumor growth
[7]; effect example 3.2.2, after 28 days
  tumor growth inhibition (in words): can significantly inhibit NCI-N87 tumor growth
[7]; effect example 3.3.2, after 42 days
  tumor growth inhibition (in words): could significantly inhibit tumor growth
[8]; Table 15, single dose, 5 mg/kg
  Tumor volume (mm^3) Day 21: 8 ± 1 mm^3
[8]; [11]
  T/C (%): 0.48%
  TGI (%): 111.60%
[8]; Table 15, single dose, 5 mg/kg, baseline at grouping
  Tumor volume (mm^3) Day 0: 171 ± 23 mm^3
[8]; effect example 3.1.3, 5 mg/kg (ADC-1 also 10 mg/kg), after 21 days
  tumor growth inhibition (in words): able to significantly inhibit tumor growth
[9]; day 28
  TGI (%): 12.8%
[9]; end day (day 28), mean
  Tumor volume (mm^3): 1415 mm^3
